Patent US9018224B2, “Substituted cyclopropyl compounds useful as GPR119 agonists” (Merck Sharp & Dohme Corp., priority 2011, dated 2015)

target: T1, human GPR119 (Homo sapiens, UniProt Q8TDV5); experiment: Measurement of GPR119 signaling by cAMP (LANCE cAMP kit or HTRF) in HEK293 cells transfected with human GPR119; format: cell-based; conditions: agonist cAMP response in HEK293 cells stably transfected with human GPR119; patent does not say which of the two cAMP formats (LANCE or HTRF)
T1 sequence (Q8TDV5 1-308 limits assumed): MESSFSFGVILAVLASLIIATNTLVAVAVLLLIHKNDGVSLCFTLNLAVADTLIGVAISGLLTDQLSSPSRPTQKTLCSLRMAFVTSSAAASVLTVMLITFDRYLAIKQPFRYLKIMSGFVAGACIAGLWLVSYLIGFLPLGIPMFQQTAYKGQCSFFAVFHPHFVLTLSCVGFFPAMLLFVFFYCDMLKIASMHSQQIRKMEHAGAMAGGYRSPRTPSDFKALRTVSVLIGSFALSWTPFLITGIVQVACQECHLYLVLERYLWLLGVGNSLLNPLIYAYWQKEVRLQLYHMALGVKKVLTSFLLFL
Method in brief: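 LANCE TR-FRET cAMP readout; detection with Eu-SA/biotin-cAMP tracer for 3 h, signal converted to cAMP via standard curve, duplicates, 4-parameter fit vs DMSO basal and internal agonist maximum.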

Row | EC50 [nM] | Compound
1 | 0.32 | N#Cc1cc(OCC[C@@H]2C[C@@H]2C2CCN(c3ncc(Cl)cn3)CC2)ccc1CC(=O)N1CCC1 [Example 23, 2-[2-(azetidin-1-yl)-2-oxoethyl]-5-(2-{(1S,2R)-2-[1-(5-chloropyrimidin-2-yl)piperidin-4-yl]cyclopropyl}ethoxy)benzonitrile]
2 | 2.3 | O=C(Cc1ccc(OCC[C@@H]2C[C@@H]2C2CCN(c3ncc(Cl)cn3)CC2)cc1F)N1CCc2ccncc2C1 [Example 128]
3 | 1.3 | COCCN(C)C(=O)Cc1ccc(OCC[C@@H]2C[C@@H]2C2CCN(c3ncc(Cl)cn3)CC2)cc1F [Example 104]
4 | 8.6 | CC1CC(C)CN(C(=O)Cc2ccc(OCC[C@@H]3C[C@@H]3C3CCN(c4ncc(Cl)cn4)CC3)cc2F)C1 (stereo partly shown) [Example 89]
